This assay concerns PGE2 production. In kind it is cell-based, murine. As to conditions: Mus musculus, RAW264.7; RAW 264.7, test material 60 min prior to 1.0 μg/mL LPS, PGE2 18 h post stimulation; read-out: IC50 (median inhibitory concentration for PGE2).

Values after ≈ are worked out from the molar mass of the structure shown.

As to `Cn1c(=O)c2c(ncn2C)n(C)c1=O` [Caffeine, caffeine], the IC50 came to 25 µg/mL (≈ 129 µM).

(Values after patent US7914831B2, “Synergistic anti-inflammatory pharmaceutical compositions and related methods using curcuminoids or methylxanthines” (priority 2004, dated 2011).)
